The source of these data is US10647713B2 (Nimbus Lakshmi, Inc., priority 2016, dated 2020).

The Kd is the equilibrium constant for the complex coming apart. The low end stands for higher affinity, the high end for lower affinity.

Chain of human TYK2 (JH2domain-pseudokinase) (P29597 556-888): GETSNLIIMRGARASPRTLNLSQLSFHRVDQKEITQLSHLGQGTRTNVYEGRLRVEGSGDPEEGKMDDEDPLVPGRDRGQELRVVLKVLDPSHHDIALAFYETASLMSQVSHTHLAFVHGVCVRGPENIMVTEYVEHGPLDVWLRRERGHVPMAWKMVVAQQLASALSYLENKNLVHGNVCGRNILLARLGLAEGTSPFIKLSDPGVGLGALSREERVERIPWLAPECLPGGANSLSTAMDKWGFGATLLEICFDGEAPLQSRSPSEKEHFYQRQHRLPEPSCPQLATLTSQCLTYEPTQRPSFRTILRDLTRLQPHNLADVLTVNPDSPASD

This experiment has as its target human TYK2 (JH2domain-pseudokinase) (Homo sapiens (Human), UniProt P29597). Put plainly: TYK2 JH2 Domain Binding Assay (KINOMEscan, DiscoveRx). The conditions noted are these: 11-point dilution, duplicate. In a few lines: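 TYK2 JH2 (G556–D888)–NFkB DBD fusion, DNA-tagged, from HEK293 extracts (<0.1 nM) competed against immobilised biotinylated ligand for 1 h at room temperature, 0.9% DMSO. Bead-retained kinase quantified by qPCR; Kd from 11-point 3-fold series (top 30,000 nM, duplicate), Hill fit with slope −1.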
In the case of `COc1c(Nc2cc(Nc3ccc(N4CCC4)c(C#N)n3)nc3[nH]c(C)nc23)cccc1-c1nnn(C)n1` [I-113, 3-(azetidin-1-yl)-6-((7-((2-methoxy-3-(2-methyl-2H-tetrazol-5-yl)phenyl)amino)-2-methyl-3H-imidazo[4,5-b]pyridin-5-yl)amino)picolinonitrile], the Kd is 0.1 to 0.5 nM.

Regarding `COc1c(Nc2cc(NC(=O)C3CC3)nc3[nH]c(C)nc23)cccc1-c1nc(C)nn1C` [I-114, N-(7-((3-(1,3-dimethyl-1H-1,2,4-triazol-5-yl)-2-methoxyphenyl)amino)-2-methyl-3H-imidazo[4,5-b]pyridin-5-yl)cyclopropanecarboxamide], the dissociation constant (Kd) was in the range of 1 to 10 nM.

Turning to `COc1c(Nc2cc(Nc3ccc(C(C)C)c(C#N)n3)nc3[nH]c(C)nc23)cccc1-c1nnn(C)n1` [I-115, 3-isopropyl-6-((7-((2-methoxy-3-(2-methyl-2H-tetrazol-5-yl)phenyl)amino)-2-methyl-3H-imidazo[4,5-b]pyridin-5-yl)amino)picolinonitrile], the Kd lay within 1 to 10 nM.

Molecule `COc1c(Nc2cc(Nc3cnc(N4CCOCC4)c(C#N)n3)nc3[nH]c(C)nc23)cccc1-c1nnn(C)n1` [I-116, 6-((7-((2-methoxy-3-(2-methyl-2H-tetrazol-5-yl)phenyl)amino)-2-methyl-3H-imidazo[4,5-b]pyridin-5-yl)amino)-3-morpholinopyrazine-2-carbonitrile] had a Kd of 1 to 10 nM.

`COc1c(Nc2cc(Nc3cnc(N4CC[C@@H](OC)C4)c(C#N)n3)nc3[nH]c(C)nc23)cccc1-c1nnn(C)n1` [I-117, (R)-6-((7-((2-methoxy-3-(2-methyl-2H-tetrazol-5-yl)phenyl)amino)-2-methyl-3H-imidazo[4,5-b]pyridin-5-yl)amino)-3-(3-methoxypyrrolidin-1-yl)pyrazine-2-carbonitrile]: the Kd was 1 to 10 nM.

`Cc1ccc(Nc2cc(Nc3ccccc3N(C)S(C)(=O)=O)c3nc(C)[nH]c3n2)nn1` [I-118, N-methyl-N-(2-((2-methyl-5-((6-methylpyridazin-3-yl)amino)-3H-imidazo[4,5-b]pyridin-7-yl)amino)phenyl)methanesulfonamide] gave a Kd of 0.1 to 0.5 nM.

Molecule `Cc1nc2c(Nc3ccccc3N(C)S(C)(=O)=O)cc(Nc3cccc(C#N)n3)nc2[nH]1` [I-120, N-(2-((5-((6-cyanopyridin-2-yl)amino)-2-methyl-3H-imidazo[4,5-b]pyridin-7-yl)amino)phenyl)-N-methylmethanesulfonamide] displayed a Kd below 0.1 nM.

For `COC1CN(c2ccc(Nc3cc(NC(=O)C4CC4)nc4[nH]c(C)nc34)c(N(C)S(C)(=O)=O)c2)C1` [I-122, N-(7-((4-(3-methoxyazetidin-1-yl)-2-(N-methylmethylsulfonamido)phenyl)amino)-2-methyl-3H-imidazo[4,5-b]pyridin-5-yl)cyclopropanecarboxamide], the dissociation constant Kd fell in the range of 1 to 10 nM.

Take `Cc1nc2c(Nc3ccccc3N(C)S(C)(=O)=O)cc(Nc3cnc(C)c(C)n3)nc2[nH]1` [I-123, N-(2-((5-((5,6-dimethylpyrazin-2-yl)amino)-2-methyl-3H-imidazo[4,5-b]pyridin-7-yl)amino)phenyl)-N-methylmethanesulfonamide]: the Kd was in the range of 0.1 to 0.5 nM.

Molecule `Cc1cc(Nc2cc(Nc3ccccc3N(C)S(C)(=O)=O)c3nc(C)[nH]c3n2)nc(C)n1` [I-124, N-(2-((5-((2,6-dimethylpyrimidin-4-yl)amino)-2-methyl-3H-imidazo[4,5-b]-pyridin-7-yl)amino)phenyl)-N-methylmethanesulfonamide] registered an equilibrium dissociation constant (Kd) of 0.1 to 0.5 nM.

In turn, `Cc1nc2c(Nc3ccccc3N(C)S(C)(=O)=O)cc(Nc3ccc(C)c(C#N)n3)nc2[nH]1` [I-125, N-(2-((5-((6-cyano-5-methylpyridin-2-yl)amino)-2-methyl-3H-imidazo[4,5-b]pyridin-7-yl)amino)phenyl)-N-methylmethanesulfonamide] showed a Kd of 0.1 to 0.5 nM.

As to `Cc1nc2c(Nc3ccc(Cl)cc3S(C)(=O)=O)cc(NC(=O)C3CC3)nc2[nH]1` [I-126, N-(7-((4-chloro-2-(methylsulfonyl)phenyl)amino)-2-methyl-3H-imidazo[4,5-b]pyridin-5-yl)cyclopropanecarboxamide], the Kd fell in the range of 0.1 to 0.5 nM.

`Cc1nc2c(Nc3ccccc3N(C)S(C)(=O)=O)cc(Nc3cccc(C(F)(F)F)n3)nc2[nH]1` [I-127, N-methyl-N-(2-((2-methyl-5-((6-(trifluoromethyl)pyridin-2-yl)amino)-3H-imidazo[4,5-b]pyridin-7-yl)amino)phenyl)methanesulfonamide] showed a Kd of 0.1 to 0.5 nM.

Molecule `COc1c(Nc2cc(NC(=O)C3CC3)nc3[nH]c(C)nc23)cccc1-n1cnc(C)n1` [I-128, N-(7-((2-methoxy-3-(3-methyl-1H-1,2,4-triazol-1-yl)phenyl)amino)-2-methyl-3H-imidazo[4,5-b]pyridin-5-yl)cyclopropanecarboxamide] registered a dissociation constant Kd of 1 to 10 nM.

With `Cc1nc2c(Nc3ccc(N4CCC4)cc3N(C)S(C)(=O)=O)cc(NC(=O)C3CC3)nc2[nH]1` [I-129, N-(7-((4-(azetidin-1-yl)-2-(N-methylmethylsulfonamido)phenyl)amino)-2-methyl-3H-imidazo[4,5-b]pyridin-5-yl)cyclopropanecarboxamide], the Kd lay within 1 to 10 nM.

For `Cc1nc2c(Nc3ccc(Cl)cc3N(C)S(C)(=O)=O)cc(Nc3cnc(C)c(C)n3)nc2[nH]1` [I-130, N-(5-chloro-2-((5-((5,6-dimethylpyrazin-2-yl)amino)-2-methyl-3H-imidazo[4,5-b]pyridin-7-yl)amino)phenyl)-N-methylmethanesulfonamide], the dissociation constant (Kd) was 0.5 to 1 nM.

In the case of `Cc1ccc(Nc2cc(NC(=O)C3CC3)nc3[nH]c(C)nc23)c(N(C)S(C)(=O)=O)c1` [I-131, N-(2-methyl-7-((4-methyl-2-(N-methylmethylsulfonamido)phenyl)amino)-3H-imidazo[4,5-b]pyridin-5-yl)cyclopropanecarboxamide], the dissociation constant (Kd) was in the range of 0.5 to 1 nM.

The molecule `Cc1ccc(Nc2cc(Nc3cnc(C)c(C)n3)nc3[nH]c(C)nc23)c(N(C)S(C)(=O)=O)c1` [I-132, N-(2-((5-((5,6-dimethylpyrazin-2-yl)amino)-2-methyl-3H-imidazo[4,5-b]pyridin-7-yl)amino)-5-methylphenyl)-N-methylmethanesulfonamide] showed a Kd of 0.1 to 0.5 nM.

Molecule `COc1c(Nc2cc(NC(=O)C3CC3)nc3[nH]c(C)nc23)cccc1-c1nn(C)nc1C` [I-133, N-(7-((3-(2,5-dimethyl-2H-1,2,3-triazol-4-yl)-2-methoxyphenyl)amino)-2-methyl-3H-imidazo[4,5-b]pyridin-5-yl)cyclopropanecarboxamide] showed a dissociation constant Kd of 1 to 10 nM.

For the molecule `Cc1nc2c(Nc3ccc(Cl)cc3N(C)S(C)(=O)=O)cc(Nc3cccc(C#N)n3)nc2[nH]1` [I-134, N-(5-chloro-2-((5-((6-cyanopyridin-2-yl)amino)-2-methyl-3H-imidazo[4,5-b]pyridin-7-yl)amino)phenyl)-N-methylmethanesulfonamide], the dissociation constant (Kd) was in the range of 0.1 to 0.5 nM.

For `Cc1cnn(-c2ccc(Nc3cc(NC(=O)C4CC4)nc4[nH]c(C(F)F)nc34)c(N(C)S(C)(=O)=O)c2)c1` [I-135, N-(2-(difluoromethyl)-7-((4-(4-methyl-1H-pyrazol-1-yl)-2-(N-methylmethylsulfonamido)phenyl)amino)-3-imidazo[4,5-b]pyridin-5-yl)cyclopropanecarboxamide], the Kd was 0.1 to 0.5 nM.

The molecule `COc1ccccc1Nc1cc(Nc2ccc(N3CCC4(CCOCC4)CC3)cn2)nc2[nH]c(C(F)F)nc12` [I-136, N5-(5-(3-oxa-9-azaspiro[5.5]undecan-9-yl)pyridin-2-yl)-2-(difluoromethyl)-N7-(2-methoxyphenyl)-3H-imidazo[4,5-b]pyridine-5,7-diamine] had a Kd above 10 nM.

`COc1c(Nc2cc(Nc3cnc(C(C)(C)OC)c(C)n3)nc3[nH]c(C)nc23)cccc1-c1nnn(C)n1` [I-138, N7-(2-methoxy-3-(2-methyl-2H-tetrazol-5-yl)phenyl)-N5-(5-(2-methoxypropan-2-yl)-6-methylpyrazin-2-yl)-2-methyl-3H-imidazo[4,5-b]pyridine-5,7-diamines]: the Kd was 1 to 10 nM.

On to `Cc1ccn(-c2ccc(Nc3cc(NC(=O)C4CC4)nc4[nH]c(C(F)F)nc34)c(N(C)S(C)(=O)=O)c2)n1` [I-139, N-(2-(difluoromethyl)-7-((4-(3-methyl-1H-pyrazol-1-yl)-2-(N-methylmethylsulfonamido)phenyl)amino)-3H-imidazo[4,5-b]pyridin-5-yl)cyclopropanecarboxamide], for which the dissociation constant (Kd) lay in the range of 0.5 to 1 nM.

Molecule `COc1c(Nc2cc(NC(=O)C3CC3)nc3[nH]c(C(F)F)nc23)cccc1C(=O)O` [I-140, 3-((5-(cyclopropanecarboxamido)-2-(difluoromethyl)-3H-imidazo[4,5-b]pyridin-7-yl)amino)-2-methoxybenzoic acid] displayed a Kd of 1 to 10 nM.

Consider `COc1c(Nc2cc(NC(=O)C3CC3)nc3[nH]c(C)nc23)cccc1C(=O)O` [I-141, 3-((5-(cyclopropanecarboxamido)-2-methyl-3H-imidazo[4,5-b]pyridin-7-yl)amino)-2-methoxybenzoic acid], for which the Kd was above 10 nM.

As to `COc1cc(-c2cncn2C)ccc1Nc1cc(NC(=O)C2CC2)nc2[nH]c(C(F)F)nc12` [I-142, N-(2-(difluoromethyl)-7-((2-methoxy-4-(1-methyl-1H-imidazol-5-yl)phenyl)amino)-3H-imidazo[4,5-b]pyridin-5-yl)cyclopropanecarboxamide], the dissociation constant Kd fell in the range of 1 to 10 nM.

With `COc1cc(-c2cncn2C)ccc1Nc1cc(Nc2cccc(C#N)n2)nc2[nH]c(C(F)F)nc12` [I-143, 6-((2-(difluoromethyl)-7-((2-methoxy-4-(1-methyl-1H-imidazol-5-yl)phenyl)amino)-3H-imidazo[4,5-b]pyridin-5-yl)amino)picolinonitril], the Kd lay in the range of 1 to 10 nM.

The molecule `COc1cc(-c2cncn2C)ccc1Nc1cc(Nc2cnc(C)c(C)n2)nc2[nH]c(C(F)F)nc12` [I-144, 2-(difluoromethyl)-N5-(5,6-dimethylpyrazin-2-yl)-N7-(2-methoxy-4-(1-methyl-1H-imidazol-5-yl)phenyl)-3H-imidazo[4,5-b]pyridine-5,7-diamine] registered an equilibrium dissociation constant (Kd) above 10 nM.
